In patent publication US10329336B2, “Antimicrobial kinocidin compositions and methods of use” (LA Biomedical Research Institute at Harbor-UCLA Medical …, priority 2006, dated 2019):
Entries after “also recorded” stand apart in the source; their conditions may differ.

Key:
[1] = test system: Candida albicans (ATCC 36082); assay: Solid-phase antimicrobial assay of kinocidins; assay type: cell-based; conditions: C. albicans, 0.5 nmol/well
Method: (§1) Peptides (0.5 nmol) were introduced into wells in agarose plates buffered with MES (2.0 mM, pH 5.5) or PIPES (10.0 mM, pH 7.5). Antimicrobial activity was assessed as the zone of complete (blue) or partial (red) inhibition around the well. Abbreviations are: Native IL-8 (IL-8); IL-8α, (α); IL-8γ, (γ); IL-8α+IL-8γ (α+γ); RANTES, (RAN); GRO-α, (GRO); MCP-1, (MCP); lymphotactin, (LYM); platelet factor-4, (PF-4); and HNP-1, (HNP). Histograms are means±SEM (minimum n=2).
(§2) Briefly, the antimicrobial assays were performed against a panel of prototype human pathogens as previously detailed (Yoshimura, T., Matsushima, K., Tanaka, S., Robinson, E. A., Appella, E., Oppenheim, J. J. & Leonard, E. J. (1987) Proc Natl Acad Sci USA 84, 9233-7): Staphylococcus aureus (ATCC 27217; Gram-positive bacterium); Salmonella typhimurium (5996s; Gram-negative bacterium); and the fungus Candida albicans (ATCC 36082). Defensin HNP-1 was included in each assay as an internal control, and all assays were conducted a minimum of two independent times. Results of independent assays were analyzed using Wilcoxon Rank Sum analysis with Bonferroni correction for multiple comparisons.
(§3) For the Solid-Phase Assay, mid-logarithmic phase organisms were prepared, introduced into buffered agarose (PIPES [10 mM, pH 7.5] or MES [2.0 mM, pH 5.5]) to achieve final inocula of 10^6 CFU/ml, and poured into plates. Peptides (0.5 nmol/well [50 nmol/ml]) were added to wells in the seeded matrix, and incubated for 3h at 37° C. Nutrient overlay medium was applied, and assays incubated at 37° C. or 30° C. for bacteria or fungi, respectively. After 24h, zones of inhibition were measured, and results recorded as zones of complete or partial inhibition.

[2] = test system: Salmonella typhimurium (5996s); assay: Solid-phase antimicrobial assay of kinocidins; assay type: cell-based; conditions: S. typhimurium (Gram-negative); pH 5.5 or 7.5, not separated; 0.5 nmol/well
Method: as §1, §2, §3

[3] = test system: Staphylococcus aureus (ATCC 27217); assay: Solid-phase antimicrobial assay of kinocidins; assay type: cell-based; conditions: 0.5 nmol/well
Method: as §1, §2, §3

S. aureus ATCC 27217 = assay: Solution-phase microbicidal assay; assay type: cell-based, Staphylococcus aureus; conditions: for microbicidal activity: solution-phase, pH 5.5 and 7.5, 1 hour
Method: (§4) One million CFU of the indicated microorganism per milliliter were incubated with peptide (0.00125-20.0 nmol/ml) in either MES (2.0 mM, pH 5.5) or PIPES (10.0 mM, pH 7.5) for one hour at 37° C. Surviving CFU were enumerated and are described as change in the initial log 10 CFU. ∘, S. aureus ATCC 27217; ●, S. typhimurium strain 5990s; □, C. albicans ATCC 36082. Data are means±SD (minimum n=2).
as §2
(§5) To characterize IL-8's antimicrobial activity in more detail, a quantitative solution-phase assay was carried out at pH 5.5 and 7.5. Organisms were prepared and adjusted to 10^6 CFU/ml in PIPES or MES buffer as above but lacking agarose, and dispensed (5×10^4 CFU per 50 μl aliquot). Peptide (concentration range, 20-0.00125 nmol/ml) was introduced into the assay medium, and incubated for 1 hour at 37° C. After incubation, media were serially diluted and plated in triplicate for enumeration. […] IL-8 was also fungicidal for C. albicans at pH 7.5, with a 2-log reduction in surviving CFU over 1 hour at a concentration of 2.5 nmol/ml.

C. albicans ATCC 36082 = assay: Solution-phase microbicidal assay; assay type: cell-based, Candida albicans; conditions: C. albicans; for microbicidal (fungicidal) activity: solution-phase, pH 5.5 and 7.5, 1 hour
Method: as §4, §2, §5

S. typhimurium = assay: Solution-phase microbicidal assay; assay type: cell-based, Salmonella typhimurium; conditions: for microbicidal activity: solution-phase, pH 5.5 and 7.5, 1 hour
Method: as §4, §2, §5

[4] = test system: Candida albicans (ATCC 36082); assay: Solid-phase radial diffusion assay (signature model validation), fungus; assay type: cell-based; conditions: C. albicans, pH 5.5 or pH 7.5, after 24h
Method: (§6) Standard radial diffusion assays were conducted using 10 μg of specified peptide: defensin HNP-1 (HNP); brazzein (BRZ); charybdotoxin (CTX); or metallothionein II (MTL). Recombinant brazzein reflecting the published 3-dimensional structure (1BRZ) as determined by nuclear magnetic resonance spectroscopy was kindly provided by Drs. J. L. Markley and F. M. Assadi-Porter, the University of Wisconsin 25. Charybdotoxin, metallothionein II, and defensin HNP-1 were obtained from commercial sources. Antimicrobial activity was assessed using a well-established solid-phase diffusion method as described by Tang et al., Infect. Immun. 70: 6524-6533 (2002). Assays included well characterized organisms: Staphylococcus aureus (ATCC 27217, Gram-positive coccus); Bacillus subtilis (ATCC 6633, Gram-positive bacillus); Escherichia coli (strain ML-35, Gram-negative bacillus); and Candida albicans (ATCC 36082, fungus). In brief, organisms were cultured to logarithmic phase and inoculated (10^6 colony forming units/ml) into buffered molecular-biology grade agarose at the indicated pH. Peptides resuspended in sterile deionized water were introduced into wells formed in the underlay, and incubated for 3h at 37° C. Nutrient-containing overlay medium was then applied, and assays incubated at 37° C. or 30° C. for bacteria or fungi, respectively. After 24h, zones of complete or partial inhibition were measured. All assays were repeated independently a minimum of two times at pH 5.5 (panels A-D) or pH 7.5 (panels E-H) to assess the influences of pH on peptide antimicrobial activities versus microorganisms. Histograms express mean (±standard deviation) zones of complete (blue) or incomplete (yellow) inhibition of growth. […] Note differences in scale.
(§7) These peptides were tested for antimicrobial activity against a panel of Gram-positive (Staphylococcus aureus. Bacillus subtilis) and Gram-negative (Escherichia coli) bacteria, and the fungus Candida albicans, using a well-established and sensitive in vitro assay [Antimicrobial activity was assessed using a well-established solid-phase diffusion method. Assays included well-characterized organisms: Staphylococcus aureus (ATCC 27217, Gram-positive); Bacillus subtilis (ATCC 6633, Gram-positive); Escherichia coli (strain ML-35, Gram-negative); and Candida albicans (ATCC 36082, fungus). In brief, organisms were cultured to logarithmic phase and inoculated at a density of 10^6 colony forming units/ml in buffered molecular grade agarose at the indicated pH. […] of peptide resuspended in sterile deionized water were introduced into wells formed in the underlay, and incubated for 3h at 37° C. […] After 24h, zones of complete or partial inhibition were measured. […]

[5] = test system: Staphylococcus aureus (ATCC 27217), Bacillus subtilis (ATCC 6633), Escherichia coli (strain ML-35); assay: Solid-phase radial diffusion assay (signature model validation), bacteria panel; assay type: cell-based; conditions: pH 5.5 or pH 7.5, after 24h
Method: as §6, §7

[6] = S. aureus (Gram-positive), pH 5.5 or 7.5, not separated

ANTEIIVKLSDGRELCLDP [IL-8γ, synthetic γ-core domain of IL-8]
antifungal activity (zone of inhibition) ([1]; pH 5.5 or 7.5, not separated): no detectable antimicrobial efficacy | antimicrobial activity (zone of inhibition) [2]: no detectable antimicrobial efficacy | antimicrobial activity (zone of inhibition) [3, 6]: no detectable antimicrobial efficacy | microbicidal activity (S. aureus ATCC 27217): no measurable activity | microbicidal (fungicidal) activity (C. albicans ATCC 36082): no measurable activity | microbicidal activity (S. typhimurium): no measurable activity

IL-8: recombinant human chemokine interleukin-8, obtained commercially
antifungal activity (zone of inhibition) ([1]; pH 5.5): greater than any other kinocidin | antifungal activity (zone of inhibition) ([1]; pH 5.5 or 7.5, not separated): striking antifungal activity | antifungal activity (zone of inhibition) ([1]; pH 7.5): the only kinocidin with anti-candidal activity | antimicrobial activity (zone of inhibition) [2]: equivalent to lymphotactin, but more efficacious than any other test kinocidin | antimicrobial activity (zone of inhibition) ([3]; S. aureus, pH 5.5): modest activity | activity in solution phase (S. aureus ATCC 27217; pH 7.5): lacks activity | microbicidal activity (S. aureus ATCC 27217): did not exert microbicidal activity | reduction in surviving CFU (C. albicans ATCC 36082; pH 7.5, 2.5 nmol/ml, over 1 hour): 2 log | microbicidal (fungicidal) activity (C. albicans ATCC 36082): highly fungicidal | activity in solution phase (S. typhimurium; pH 7.5): lacks activity | microbicidal activity (S. typhimurium): did not exert microbicidal activity

MCP-1: recombinant human chemokine, obtained commercially
antifungal activity (zone of inhibition) ([1]; pH 5.5 or 7.5, not separated): no measurable antifungal activity | antimicrobial activity (zone of inhibition) [2]: significant activity | antimicrobial activity (zone of inhibition) [3, 6]: significant activity

RANTES: recombinant human chemokine, obtained commercially
antimicrobial activity (zone of inhibition) ([3]; S. aureus, pH 7.5): more efficacious

brazzein: recombinant sweetener protein from Pentadiplandra (1BRZ) (QDKCKKVYENYPVSKCQLANQCNYDCKLDKHARSGECFYDEKRNLQCICDYCEY; UniProt P56552 1-54, looked up)
antimicrobial activity (zones of complete or partial inhibition) [4]: exerted direct antimicrobial activity; also recorded: direct antimicrobial activities | antimicrobial activity (zones of complete or partial inhibition) [5]: exerted direct antimicrobial activity; also recorded: direct antimicrobial activities

charybdotoxin
antimicrobial activity (zones of complete or partial inhibition) [4]: exerted direct antimicrobial activity; also recorded: direct antimicrobial activities | antimicrobial activity (zones of complete or partial inhibition) [5]: exerted direct antimicrobial activity; also recorded: direct antimicrobial activities

metallothionein II: comparator predicted to lack antimicrobial activity, from commercial sources
antimicrobial activity (zones of complete or partial inhibition) [4]: failed to exert antimicrobial activity | antimicrobial activity (zones of complete or partial inhibition) ([4]; listed as Metallothionein II): lacked antimicrobial activity | antimicrobial activity (zones of complete or partial inhibition) [5]: failed to exert antimicrobial activity | antimicrobial activity (zones of complete or partial inhibition) ([5]; listed as Metallothionein II): lacked antimicrobial activity

B1: Lymphotactin: recombinant human chemokine, obtained commercially (protein, UniProt P47992 22-114, looked up)
Lymphotactin: VGSEVSDKRTCVSLTTQRLPVSRIKTYTITEGSLRAVIFITKRGLKVCADPQATWVRDVVRSMDRKSNTRNNMIQTKPTGTQQSTNTAVTLTG
antimicrobial activity (zone of inhibition) ([3]; S. aureus, pH 7.5): more efficacious
